For one data set, the system named is NMRI mice. In words: In vivo activity: serum and femur calcium after 7 daily i.p. injections. The note with it: for Serum calcium vs. control (%) / femur calcium vs. control (%): 7 days. The procedure:
Eight weeks old, male NMRI mice were fed a vitamin D-replete diet (0.2% calcium, 1% phosphate, 2000 U vitamin D/kg; Hope Farms, Woerden, The Netherlands). Groups of six mice were intraperitoneally injected daily during 7 consecutive days with different doses of 1,25(OH)2D3 (0.2 and 0.4 μg/kg/day) or analogues. The control group was injected with vehicle (arachis oil). The average weight of each group of 6 mice was determined at the beginning and at the end of the experiment. The following parameters were evaluated: serum calcium and femur calcium. Serum calcium was measured by a microcolorimetric assay (Sigma, St. Louis, Mo.). Femurs were removed and femur calcium content was measured in HCl-dissolved bone ash (obtained by heating for 24 hours in an oven at 100° C.), using the same technique as for serum calcium. Student's t-tests were carried out to detect significant differences; p<0.05 was accepted as significant. […]

Data set [1] addresses T1, human vitamin D binding protein (hDBP) (Homo sapiens, UniProt P02774).
T1 sequence (P02774 17-474): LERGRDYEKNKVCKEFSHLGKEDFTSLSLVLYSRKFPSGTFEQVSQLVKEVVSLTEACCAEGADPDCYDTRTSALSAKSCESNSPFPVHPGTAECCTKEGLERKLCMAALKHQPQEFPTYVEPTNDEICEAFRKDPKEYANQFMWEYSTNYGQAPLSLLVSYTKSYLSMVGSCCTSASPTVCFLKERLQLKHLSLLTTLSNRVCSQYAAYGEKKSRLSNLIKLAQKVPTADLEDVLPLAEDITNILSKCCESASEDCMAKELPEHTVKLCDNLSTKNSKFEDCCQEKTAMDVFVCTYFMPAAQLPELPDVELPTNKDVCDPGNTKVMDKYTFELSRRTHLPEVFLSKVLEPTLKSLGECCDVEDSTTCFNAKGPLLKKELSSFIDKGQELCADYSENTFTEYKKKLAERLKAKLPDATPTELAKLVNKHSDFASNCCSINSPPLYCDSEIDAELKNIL
Put plainly: Affinity for human vitamin D binding protein. The note with it: hDBP 0.18 μM, 4° C. 3 hours; 1,25(OH)2D3 = 100. The procedure: Binding of 1α,25(OH)2D3 analogues to hDBP was performed at 4° C. […] Phase separation was then obtained by the addition of 0.5 ml of cold dextran-coated charcoal.

The next data set has as its target T2, vitamin D receptor (VDR) (Sus scrofa, UniProt A3RGC1).
T2 construct: high speed supernatant from intestinal mucosa homogenates obtained from normal pigs; from tissue; host or cells: pig intestinal mucosa (high speed supernatant of homogenate)
T2 sequence (A3RGC1 1-427): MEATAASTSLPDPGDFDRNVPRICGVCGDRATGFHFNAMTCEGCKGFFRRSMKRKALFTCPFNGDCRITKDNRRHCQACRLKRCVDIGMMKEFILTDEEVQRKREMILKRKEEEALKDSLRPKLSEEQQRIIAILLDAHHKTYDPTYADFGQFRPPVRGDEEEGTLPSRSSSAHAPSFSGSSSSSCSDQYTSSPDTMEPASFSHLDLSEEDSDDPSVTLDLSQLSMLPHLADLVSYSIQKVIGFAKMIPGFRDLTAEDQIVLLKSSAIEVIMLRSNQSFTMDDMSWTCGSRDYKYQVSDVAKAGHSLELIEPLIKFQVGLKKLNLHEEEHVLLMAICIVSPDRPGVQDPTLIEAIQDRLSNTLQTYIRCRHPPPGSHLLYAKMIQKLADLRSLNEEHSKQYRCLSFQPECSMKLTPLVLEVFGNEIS
In words: Affinity for vitamin D receptor: competition with [3H]1α,25(OH)2D3. The class given is binding. Particulars: pig intestinal mucosa supernatant, 4° C. 20 hours; 1α,25(OH)2D3 = 100%. As to the method:
The methods used herein to evaluate the binding properties of vitamin D analogues are state of the art techniques used for steroid hormone (including vitamin D) binding assays. […] Incubation was performed at 4° C. for 20 hours and phase separation was obtained by addition of dextran-coated charcoal.

The mark [2] stands for this setting: dose 0.2 μg/kg/d i.p., * in cell = P < 0.05.
[3] abbreviates: Table 6, dose 0.4 μg/kg/day, * in cell = p < 0.05.
Where [4] appears, read: dose 0.4 μg/kg/d i.p., * in cell = P < 0.05.

Consider ten compounds from patent US7704986B2, “Vitamin D3 analogues for the prevention and treatment of bone disorders” (K.U. Leuven Research and Development, priority 2004, dated 2010).

As for `CC(C)[C@H](O)CC[C@H](C)[C@@]1(C)CC[C@@H](/C=C/C=C2C[C@@H](O)C[C@H](O)C2)C1(C)C` (stereo in doubt) [example 19, (1R,3R)-5-{(E)-3-[(S)-3-((S)-4-hydroxy-1-(S)-methyl-5-methyl-hexyl)-2,2,3-trimethyl-cyclopentyl]-allylidene}-cyclohexane-1,3-diol], in the data set with NMRI mice (dose 5 μg/kg/d i.p.), the “Serum calcium vs. control (%)” value was found to be 100%. Further, the “femur calcium vs. control (%)” value in the data set with NMRI mice (dose 5 μg/kg/d i.p., * in cell = P < 0.05) was 115* %. The “DBP (relative affinity)” value in data set [1] was 4%. Further, the “VDR (relative affinity)” value on vitamin D receptor (VDR) came to 3%.

For `C=C1/C(=C\C=C\[C@@H]2CC[C@](C)([C@@H](C)CC[C@H](O)C(C)C)C2(C)C)C[C@@H](O)C[C@@H]1O` [example 24, (1R,3S)-5-((Z,2E)-3-((1S,3R)-3-((1S,4S)-4-hydroxy-1,5-dimethylhexyl)-2,2,3-trimethylcyclopentyl)-2-propenylidene)-4-methylenecyclohexane-1,3-diol], in the data set on NMRI mice (setting [2]), the “Serum calcium vs. control (%)” value is recorded as 98% and the “femur calcium vs. control (%)” value is 112* %. For the same compound, in data set [1], the “DBP (relative affinity)” value is given as 4%. Moreover, the “VDR (relative affinity)” value at vitamin D receptor (VDR) worked out at 20%.

As for `C=C1/C(=C\C=C2/CCC[C@]3(C)[C@@H]([C@H](C)CCCC(C)(C)O)CC[C@@H]23)C[C@@H](O)C[C@@H]1O` [1,25(OH)2D3, Calcitriol, reference compound], the “Femur calcium versus control (%)” value is given as 97% in the data set with NMRI mice (Table 6, dose 0.2 μg/kg/day) and 94* % in the data set on NMRI mice (setting [3]). Further, the “Serum calcium versus control (%)” value with NMRI mice (Table 6, dose 0.2 μg/kg/day, * in cell = p < 0.05) is 121* %; with NMRI mice (setting [3]), 136* %. Moreover, the “Serum calcium vs. control (%)” value in the data set on NMRI mice (setting [2]) is on record as 121* %; in the data set on NMRI mice (setting [4]) it was 136* %. The “femur calcium vs. control (%)” value in the data set with NMRI mice (setting [2]) is 97%; with NMRI mice (setting [4]), 94* %.

Regarding `C=C1/C(=C\C=C\[C@@H]2CC[C@](C)([C@H](C)CC#CC(O)(C(F)(F)F)C(F)(F)F)C2(C)C)C[C@@H](O)C[C@@H]1O` [(1R,3S)-5-((Z,2E)-3-((1S,3R)-3-((1R)-6,6,6-trifluoro-5-hydroxy-1-methyl-5-trifluoromethyl-3-hexynyl)-2,2,3-trimethylcyclopentyl)-2-propenylidene)-4-methylenecyclohexane-1,3-diol], in the data set with NMRI mice (setting [4]), the “Serum calcium vs. control (%)” value is 94% and the “femur calcium vs. control (%)” value is 115* %. Moreover, the “DBP (relative affinity)” value in data set [1] was 0%. For the same compound, on vitamin D receptor (VDR), the “VDR (relative affinity)” value is on record as 60%.

As for `C=C1/C(=C\C=C\[C@@H]2CC[C@](C)([C@H](C)CCCC(O)(C(F)(F)F)C(F)(F)F)C2(C)C)C[C@@H](O)C[C@@H]1O` [(1R,3S)-5-((Z,2E)-3-((1S,3R)-3-((1R)-6,6,6-trifluoro-5-hydroxy-1-methyl-5-(trifluoromethyl)hexyl)-2,2,3-trimethylcyclopentyl)-2-propenylidene)-4-methylenecyclohexane-1,3-diol], in the data set with NMRI mice (setting [4]), the “Serum calcium vs. control (%)” value is recorded as 98% and the “femur calcium vs. control (%)” value is 114* %. Further, in data set [1], the “DBP (relative affinity)” value was 40%. For the same compound, on vitamin D receptor (VDR), the “VDR (relative affinity)” value turned out to be 30%.

As to `C=C1/C(=C\C=C\[C@@H]2CC[C@](C)([C@@H](C)CCCC(O)(C(F)(F)F)C(F)(F)F)C2(C)C)C[C@@H](O)C[C@@H]1O` [(1R,3S)-5-((Z,2E)-3-((1S,3R)-3-((1S)-6,6,6-trifluoro-5-hydroxy-1-methyl-5-(trifluoromethyl)hexyl)-2,2,3-trimethylcyclopentyl)-2-propenylidene)-4-methylenecyclohexane-1,3-diol], in the data set with NMRI mice (dose 0.05 μg/kg/d i.p.), the “Serum calcium vs. control (%)” value worked out at 106%. In addition, the “femur calcium vs. control (%)” value in the data set with NMRI mice (dose 0.05 μg/kg/d i.p., * in cell = P < 0.05) is recorded as 112* %. For the same compound, the “DBP (relative affinity)” value in data set [1] was 6%. For the same compound, on vitamin D receptor (VDR), the “VDR (relative affinity)” value is on record as 60%.

`C=C1/C(=C\C=C\[C@@H]2CC[C@](C)([C@@H](C)CC[C@@H](O)C(C)C)C2(C)C)C[C@@H](O)C[C@@H]1O` [example 20, (1R,3S)-5-((Z,2E)-3-((1S,3R)-3-((1S,4R)-4-hydroxy-1,5-dimethylhexyl)-2,2,3-trimethylcyclopentyl)-2-propenylidene)-4-methylenecyclohexane-1,3-diol]: in the data set on NMRI mice (dose 10 μg/kg/d i.p.), the “Serum calcium vs. control (%)” value worked out at 99%. Moreover, the “femur calcium vs. control (%)” value with NMRI mice (dose 10 μg/kg/d i.p., * in cell = P < 0.05) is 111* %. The “DBP (relative affinity)” value in data set [1] stood at 4%. At vitamin D receptor (VDR), the “VDR (relative affinity)” value is reported as 9%.

For the compound `C=C1/C(=C\C=C\[C@@H]2CC[C@](C)([C@H](C)CC#CC(C)(C)O)C2(C)C)C[C@@H](O)C[C@@H]1O` [(1R,3S)-5-((Z,2E)-3-((1S,3R)-3-((1R)-5-hydroxy-1,5-dimethyl-3-hexynyl)-2,2,3-trimethylcyclopentyl)-2-propenylidene)-4-methylenecyclohexane-1,3-diol], in the data set on NMRI mice (dose 2 μg/kg/d i.p.), the “Serum calcium vs. control (%)” value worked out at 105%. Also, the “femur calcium vs. control (%)” value with NMRI mice (dose 2 μg/kg/d i.p., * in cell = P < 0.05) is 113* %. Also, in data set [1], the “DBP (relative affinity)” value is listed as 0%. The “VDR (relative affinity)” value on vitamin D receptor (VDR) is on record as 60%.

`CCC(O)(CC)CCC[C@H](C)[C@@]1(C)CC[C@@H](/C=C/C=C2C[C@@H](O)C[C@H](O)C2)C1(C)C` [(1R,3R)-5-((E)-3-((1S,3R)-3-((1S)-5-ethyl-5-hydroxy-1-methylheptyl)-2,2,3-trimethylcyclopentyl)-2-propenylidene)cyclohexane-1,3-diol]: the “DBP (relative affinity)” value in data set [1] is given as below 0.1%. In addition, the “VDR (relative affinity)” value at vitamin D receptor (VDR) is 60%.

Turning to `C=C1/C(=C\C=C\[C@@H]2CC[C@](C)([C@@H](C)CC#CC(O)(C(F)(F)F)C(F)(F)F)C2(C)C)C[C@@H](O)C[C@@H]1O` [(1R,3S)-5-((Z,2E)-3-((1S,3R)-3-((1S)-6,6,6-trifluoro-5-hydroxy-1-methyl-5-trifluoromethyl-3-hexynyl)-2,2,3-trimethylcyclopentyl)-2-propenylidene)-4-methylenecyclohexane-1,3-diol], in the data set on NMRI mice (setting [2]), the “Serum calcium vs. control (%)” value turned out to be 103% and the “femur calcium vs. control (%)” value is reported as 117* %. In data set [1], the “DBP (relative affinity)” value was 2%. Moreover, the “VDR (relative affinity)” value on vitamin D receptor (VDR) is reported as 75%.
